Experimental data: ChEMBL document CHEMBL5727849, “Piperidinone formyl peptide 2 receptor and formyl peptide 1 receptor agonists” (2020)

Assays:
[1] = biological target: T1, N-formyl peptide receptor 2 (Homo sapiens, UniProt P25090); experiment: (§1) cAMP Assay: FPR2 and FPR1 Cyclic Adenosine Monophosphate (cAMP) Assays. A mixture of forskolin (5 μM final for FPR2 or 10 μM final for FPR1) and IBMX (200 μM final) were added to 384-well Proxiplates (Perkin-Elmer) pre-dotted with test compounds in DMSO (1% final) at final concentrations in the range of 0.020 nM to 100 μM. Chinese Hamster Ovary cells (CHO) overexpressing human FPR1 or human FPR2 receptors were cultured in F-12 (Ham's) medium supplemented with 10% qualified FBS, 250 μg/ml zeocin and 300 μg/ml hygromycin (Life Technologies). Reactions were initiated by adding 2,000 human FPR2 cells per well or 4,000 human FPR1 cells per well in Dulbecco's PBS (with calcium and magnesium) (Life Technologies) supplemented with 0.1% BSA (Perkin-Elmer). The reaction mixtures were incubated for 30 min at room temperature. The level of intracellular cAMP was determined using the HTRF HiRange cAMP assay reagent kit (Cisbio) according to manufacturer's instruction. Solutions of cryptate conjugated anti-cAMP and d2 flurorophore-labelled cAMP were made in a supplied lysis buffer separately. Upon completion of the reaction, the cells were lysed with equal volume of the d2-cAMP solution and anti-cAMP solution. After a 1-h room temperature incubation, time-resolved fluorescence intensity was measured using the Envision (Perkin-Elmer) at 400 nm excitation and dual emission at 590 nm and 665 nm.; assay type: cell-based
T1 sequence (P25090 whole entry): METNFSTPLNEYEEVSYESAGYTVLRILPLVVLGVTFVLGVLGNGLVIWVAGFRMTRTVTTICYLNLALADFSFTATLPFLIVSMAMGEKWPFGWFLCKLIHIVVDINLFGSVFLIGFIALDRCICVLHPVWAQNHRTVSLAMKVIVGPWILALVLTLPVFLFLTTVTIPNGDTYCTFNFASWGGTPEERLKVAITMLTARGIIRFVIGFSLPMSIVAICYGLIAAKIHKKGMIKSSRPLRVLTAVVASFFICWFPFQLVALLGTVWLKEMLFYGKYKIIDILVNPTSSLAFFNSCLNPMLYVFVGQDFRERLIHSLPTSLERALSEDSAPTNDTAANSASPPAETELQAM

[2] = biological target: T2, fMet-Leu-Phe receptor (Homo sapiens, UniProt P21462); experiment: as §1; assay type: cell-based
T2 sequence (P21462 whole entry): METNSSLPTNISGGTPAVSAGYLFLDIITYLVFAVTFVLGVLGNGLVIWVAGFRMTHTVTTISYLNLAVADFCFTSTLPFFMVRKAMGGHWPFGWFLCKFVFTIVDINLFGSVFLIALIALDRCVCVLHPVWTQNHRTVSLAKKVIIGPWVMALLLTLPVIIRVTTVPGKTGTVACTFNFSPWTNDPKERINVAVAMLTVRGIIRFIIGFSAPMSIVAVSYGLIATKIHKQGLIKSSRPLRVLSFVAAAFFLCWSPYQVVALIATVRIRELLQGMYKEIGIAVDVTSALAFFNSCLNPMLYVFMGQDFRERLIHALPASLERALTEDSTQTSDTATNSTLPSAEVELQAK

EC50 [1] [nM]	EC50 [2] [nM]	Structure (SMILES)
840	1700	NC(=O)c1ccccc1-c1ccc(N2CCC[C@@H](NC(=O)Nc3ccc(F)c(F)c3)C2=O)cc1
11	14	O=C(Nc1ccc(Cl)cc1)N[C@@H]1CCCN(c2ccc(-c3c(Cl)cccc3Cl)cc2)C1=O
